Consider 4 compounds from patent publication US20240116867A1, “ALKYL […] AMMONIUM T[…] THEIR […] USES” (CAAMTECH, INC., priority 2019, published 2024).

Like-named read-outs stand apart in the source and are kept apart here.

The target in experiment [1] is T1, 5-HT2B (Homo sapiens, UniProt P41595). In words: Radioligand binding, 5-HT2B ([125] (±)DOI), membrane homogenates of HEK-293 cells. Further details: host or cells: HEK-293. The following applies: Table 5. The method, then:
(§1) Cellular assays were performed by Eurofins CEREP SA, Celle-Lévescault, France. All receptors were separately expressed in HEK-293 cells. Cell membrane homogenates (30 μg protein) are incubated for 60 min (5-HT1A, 5-HT2A, 5-HT2B) or 120 min (5-HT3) at 22° C. with radiolabeled ligand in the absence or presence of the test compound in a buffer containing 50 mM Tris-HCl (pH 7.4), 5 mM MgCl2, 10 μM pargyline and 0.1% ascorbic acid. For 5-HT3, the buffer contained 50 mM Tris-HCl (pH 7.4), 5 mM MgCl2, and 1 mM EDTA. Binding was reported as the Ki for the inhibition of binding of well-characterized orthosteric ligands. The ligands used for each receptor were: • 5-HT1A: [^3H] 8-OH-DPAT • 5-HT2A: [^125] […]
(§2) Nonspecific binding was determined in the presence of 1 μM unlabeled ligand listed above. […] The filters were dried then counted for radioactivity in a scintillation counter (Topcount, Packard) using a scintillation cocktail (Microscint 0, Packard). The results are expressed as a percent inhibition of the control radioligand specific binding.
(§3) The IC50 values and Hill coefficients (nH) were determined by non-linear regression analysis of the competition curves generated with mean replicate values using Hill equation curve fitting Y=D+[(A−D)/(1+(C/C50)^nH)] where Y=specific binding, A=left asymptote of the curve, D=right asymptote of the curve, C=compound concentration, C50=IC50, and nH=slope factor. […]

Experiment [2] deals with T2, 5-HT1A (Homo sapiens, UniProt P08908).
T2 construct: host or cells: HEK-293
T2 sequence (P08908 1-422): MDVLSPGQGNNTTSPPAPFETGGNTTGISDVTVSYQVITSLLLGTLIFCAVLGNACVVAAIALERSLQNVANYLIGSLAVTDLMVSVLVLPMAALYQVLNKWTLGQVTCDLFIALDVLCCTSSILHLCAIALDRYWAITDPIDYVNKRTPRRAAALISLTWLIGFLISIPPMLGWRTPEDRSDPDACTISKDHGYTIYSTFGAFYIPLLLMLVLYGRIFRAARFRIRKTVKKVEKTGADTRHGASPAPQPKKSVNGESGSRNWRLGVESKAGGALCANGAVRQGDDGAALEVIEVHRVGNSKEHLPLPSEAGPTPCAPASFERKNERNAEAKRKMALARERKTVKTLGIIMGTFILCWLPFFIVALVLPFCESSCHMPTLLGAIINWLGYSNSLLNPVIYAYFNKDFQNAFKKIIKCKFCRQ
Kind of experiment: Radioligand binding, 5-HT1A ([3H] 8-OH-DPAT), membrane homogenates of HEK-293 cells. The following applies: Table 5. How it is done: as §1, §2, §3

Experiment [3] deals with T3, 5-HT3 (Homo sapiens, UniProt P46098).
T3 construct: host or cells: HEK-293
T3 sequence (P46098 24-478): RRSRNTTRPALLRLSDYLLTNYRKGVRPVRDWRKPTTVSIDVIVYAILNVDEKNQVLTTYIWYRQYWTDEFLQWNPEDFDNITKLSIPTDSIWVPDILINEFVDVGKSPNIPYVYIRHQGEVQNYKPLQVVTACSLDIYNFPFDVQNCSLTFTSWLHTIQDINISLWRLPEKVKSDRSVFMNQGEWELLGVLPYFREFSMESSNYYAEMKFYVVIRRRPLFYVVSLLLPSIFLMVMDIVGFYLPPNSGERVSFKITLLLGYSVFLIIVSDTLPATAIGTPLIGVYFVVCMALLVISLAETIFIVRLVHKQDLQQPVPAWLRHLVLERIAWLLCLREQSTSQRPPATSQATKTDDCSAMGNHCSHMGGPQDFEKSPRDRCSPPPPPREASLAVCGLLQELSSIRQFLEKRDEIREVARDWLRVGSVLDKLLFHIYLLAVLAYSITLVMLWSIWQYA
In words: Radioligand binding, 5-HT3 ([3H] BRL 43694), membrane homogenates of HEK-293 cells. To be noted: Table 5. How it is done:
as §1, §2, §3

Experiment [4] deals with T4, 5-HT2A (Homo sapiens, UniProt P28223).
T4 construct: host or cells: HEK-293
Kind of experiment: Radioligand binding, 5-HT2A ([125] (±)DOI), membrane homogenates of HEK-293 cells. To be noted: Table 5. How it is done:
as §1, §2, §3

The target of experiment [5] is T4, 5-HT2A. To be noted: cited from earlier work.
For experiment [6], the target named is T2, 5-HT1A. The following applies: cited from earlier work.
Experiment [7] deals with T1, 5-HT2B. To be noted: comparison values (Roth et al.); cited from earlier work.
For experiment [8], the target named is T3, 5-HT3. The following applies: read-out: Inhibition constants (Ki) 5-HT3; comparison values marked ‡ (Roth et al.); cited from earlier work.
[9] abbreviates: comparison values (Roth et al.).

T1 sequence (P41595 whole entry): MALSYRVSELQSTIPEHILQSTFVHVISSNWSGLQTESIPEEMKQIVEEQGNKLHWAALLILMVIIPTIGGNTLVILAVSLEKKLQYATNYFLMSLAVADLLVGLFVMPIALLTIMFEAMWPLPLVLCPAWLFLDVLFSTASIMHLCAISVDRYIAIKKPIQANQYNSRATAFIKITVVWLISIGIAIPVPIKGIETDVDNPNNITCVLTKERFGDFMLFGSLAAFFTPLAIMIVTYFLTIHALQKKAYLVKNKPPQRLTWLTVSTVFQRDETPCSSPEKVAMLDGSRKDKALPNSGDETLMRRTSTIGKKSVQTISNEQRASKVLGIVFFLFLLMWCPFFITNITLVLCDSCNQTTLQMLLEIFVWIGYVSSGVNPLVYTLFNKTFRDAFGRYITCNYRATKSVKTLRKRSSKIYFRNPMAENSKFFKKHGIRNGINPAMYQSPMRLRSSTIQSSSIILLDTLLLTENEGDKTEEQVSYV
T4 sequence (P28223 whole entry): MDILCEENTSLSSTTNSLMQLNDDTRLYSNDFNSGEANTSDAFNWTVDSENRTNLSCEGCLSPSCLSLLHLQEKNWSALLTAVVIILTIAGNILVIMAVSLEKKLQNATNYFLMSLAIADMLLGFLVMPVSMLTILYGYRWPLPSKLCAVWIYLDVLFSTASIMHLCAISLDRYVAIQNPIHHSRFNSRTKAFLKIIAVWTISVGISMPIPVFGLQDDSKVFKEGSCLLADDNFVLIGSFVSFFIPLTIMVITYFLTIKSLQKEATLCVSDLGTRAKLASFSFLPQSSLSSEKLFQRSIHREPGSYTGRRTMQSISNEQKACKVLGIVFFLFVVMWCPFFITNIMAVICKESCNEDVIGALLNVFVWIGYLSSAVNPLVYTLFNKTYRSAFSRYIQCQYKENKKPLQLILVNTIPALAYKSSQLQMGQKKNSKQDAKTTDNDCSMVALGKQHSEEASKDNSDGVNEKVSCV

In the case of `CC(=O)Oc1cccc2[nH]cc(CC[N+](C)(C)C)c12` [Example 4-AcO-TMTI, 4-Acetoxy-N,N,N-trimethyltryptammonium Iodide], the “activity at 5-HT2B (in words)” value at 5-HT2B [1] is reported as “shows no activity”. Also, the “activity at 5-HT1A (in words)” value at 5-HT1A [2] is reported as “shows no activity”. For the same compound, at 5-HT3 [3], the “activity at 5-HT3 (in words)” value is reported as “shows no activity”. Also, the “activity at 5-HT2A (in words)” value at 5-HT2A [4] is on record as “shows no activity”.

With `C[N+](C)(C)CCc1c[nH]c2cccc(O)c12` [Example 4-HO-TMTI, 4-Hydroxy-N,N,N-trimethyltryptammonium Iodide], at 5-HT2B [1], the “activity at 5-HT2B (in words)” value was “shows activity”. Moreover, on 5-HT1A [2], the “activity at 5-HT1A (in words)” value is listed as “shows activity”. For the same compound, the “activity at 5-HT3 (in words)” value at 5-HT3 [3] is “no activity observed”. Further, at 5-HT2A [4], the “activity at 5-HT2A (in words)” value is listed as “shows activity”.

In general, Ki refers to the equilibrium dissociation constant of an inhibitor or competing ligand from its target. Consider `CN(C)CCc1c[nH]c2cccc(O)c12` [Psilocin], for which, at 5-HT2A [5] (setting [9]), the “activity at 5-HT2A (in words)” value was “shows activity”. Also, on 5-HT1A [6] (setting [9]), the “activity at 5-HT1A (in words)” value is recorded as “shows activity”. Also, the “activity at 5-HT2B (in words)” value at 5-HT2B [7] was “significantly more potent than 4-HO-TMTI”. The Ki on 5-HT3 [8] was above 10 µM.

In the case of `CN(C)CCc1c[nH]c2cccc(OP(=O)(O)O)c12` [Psilocybin], the Ki is above 10 µM at 5-HT2A [5] (read-out: Inhibition constants (Ki) 5-HT2A, comparison values marked ‡ (Roth et al.)); above 10 µM on 5-HT1A [6] (read-out: Inhibition constants (Ki) 5-HT1A, comparison values marked ‡ (Roth et al.)); above 10 µM at 5-HT3 [8].
